Data from patent publication US4304903A, “D-Erythro-2,3-dihydroxy-1-(1-phenyl-1H-pyrazolo(3,4-b)quinoxalin-3-y l)-propyl-4-O-α-D-glucopyranosyl-alpha-D-glucopyranoside poly(H-sulfate)salts” (American Cyanamid Company, priority 1980, dated 1981).
Where a name gives a salt, the structure may show the parent alone. Read-outs that look alike come from different tables or passages of the source.

Tests used:
[1] = tested on: late components of human complement (C3-C9); experiment: Test Code 035 (C3-C9 inhibitor); format: biochemical; design: key: N = Inactive; conditions: serial twofold dilution assay; higher well number indicates higher activity; lysis of EAC 142
Text: (§1) An active inhibitor protects C2 from C1 and C4; (ii) Test Code 035 (C3-C9 inhibitor)--This test determines the ability of the late components of human complement (C3-C9) to lyse EAC 142 in the presence of appropriate dilutions of the test compound. An active inhibitor protects EAC 142 from lysis by human C3-C9; (iii) Test Code 036 (C-Shunt inhibitor)--In this test human erythrocytes rendered fragile are lysed in autologous serum via the shunt pathway activated by cobra venom factor in the presence of appropriate dilutions of the test compound. Inhibition of the shunt pathway results in failure of lysis; (iv) Forssman Vasculitis Test--Here, the well known complement dependent lesion, Forssman vasculitis, is produced in guinea pigs by intradermal injection of rabbit anti-Forssman antiserum. […] Percent inhibition is calculated by comparison with simultaneous controls. […]

activated human C1 = target: T1, activated human C1 (Homo sapiens, UniProt P09871); experiment: Test Code 026 (C1 inhibitor); format: biochemical; conditions: serial twofold dilution assay; higher well number indicates higher activity
T1 sequence (P09871 16-437 limits assumed): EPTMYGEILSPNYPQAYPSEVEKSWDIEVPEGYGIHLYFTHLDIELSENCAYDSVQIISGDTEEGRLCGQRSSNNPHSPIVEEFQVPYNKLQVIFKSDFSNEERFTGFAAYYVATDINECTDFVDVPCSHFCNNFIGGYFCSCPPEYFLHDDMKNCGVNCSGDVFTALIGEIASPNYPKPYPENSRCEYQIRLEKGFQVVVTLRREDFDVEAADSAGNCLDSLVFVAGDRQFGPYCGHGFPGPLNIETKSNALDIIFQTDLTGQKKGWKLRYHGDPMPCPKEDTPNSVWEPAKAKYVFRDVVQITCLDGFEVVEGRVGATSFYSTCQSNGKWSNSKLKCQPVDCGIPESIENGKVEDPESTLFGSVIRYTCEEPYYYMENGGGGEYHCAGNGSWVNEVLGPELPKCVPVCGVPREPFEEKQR
T1 sequence (P09871 438-688 limits assumed): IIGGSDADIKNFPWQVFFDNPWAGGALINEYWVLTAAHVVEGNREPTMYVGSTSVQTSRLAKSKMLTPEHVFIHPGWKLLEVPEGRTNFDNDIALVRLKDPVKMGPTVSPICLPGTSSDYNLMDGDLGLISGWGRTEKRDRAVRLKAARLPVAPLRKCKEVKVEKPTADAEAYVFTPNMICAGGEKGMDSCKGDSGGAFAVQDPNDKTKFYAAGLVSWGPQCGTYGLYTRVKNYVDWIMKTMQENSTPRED
Text: as §1

[2] = tested on: serum complement activity; experiment: Guinea Pig Intraperitoneal Test (GPIP); format: in vivo; conditions: Cavia porcellus, ip, 200 mg./kg. i.p.
Text: An active inhibitor protects C2 from C1 and C4; (ii) Test Code 035 (C3-C9 inhibitor)--This test determines the ability of the late components of human complement (C3-C9) to lyse EAC 142 in the presence of appropriate dilutions of the test compound. An active inhibitor protects EAC 142 from lysis by human C3-C9; (iii) Test Code 036 (C-Shunt inhibitor)--In this test human erythrocytes rendered fragile are lysed in autologous serum via the shunt pathway activated by cobra venom factor in the presence of appropriate dilutions of the test compound. Inhibition of the shunt pathway results in failure of lysis; (iv) Forssman Vasculitis Test--Here, the well known complement dependent lesion, Forssman vasculitis, is produced in guinea pigs by intradermal injection of rabbit anti-Forssman antiserum. The lesion is measured in terms of diameter, edema and hemorrhage and the extent to which a combined index of these is inhibited by prior intraperitoneal injection of the test compound at 200 mg./kg. is then reported, unless otherwise stated; (v) Forssman Shock Test--Lethal shock is produced in guinea pigs by an i.v. injection of anti-Forssman antiserum and the harmonic mean death time of treated guinea pigs is compared with that of simultaneous controls; (vi) Complement Level Reduction Test--In this test, the above dosed guinea pigs, or others, are bled for serum and the complement level is determind in undiluted serum by the capillary tube method of U.S. Pat. No. 3,876,376 and compared to undosed control guinea pigs; (vii) Cap 50 Test--Here, appropriate amounts of the test compound are added to a pool of quinea Pig serum in vitro, after which the undiluted serum capillary tube assay referred to above is run. The concentration of compound inhibiting 50% is reported; (viii) Guinea Pig Intraperitoneal Test (GPIP)--Guinea pigs weighing about 300 g. are dosed intraperitoneally (i.p.) with 200 mg./kg. of the test compound dissolved in saline and adjusted to pH 7-8. […] Percent inhibition is calculated by comparison with simultaneous controls. […]

## Cc1cc2nc3c([C@H](O[C@H]4O[C@H](COS(=O)(=O)O)[C@@H](O[C@H]5O[C@H](COS(=O)(=O)O)[C@@H](OS(=O)(=O)O)[C@H](OS(=O)(=O)O)[C@H]5OS(=O)(=O)O)[C@H](OS(=O)(=O)O)[C@H]4OS(=O)(=O)O)[C@@H](COS(=O)(=O)O)OS(=O)(=O)O)nn(-c4ccccc4)c3nc2cc1C [D-Erythro-2,3-dihydroxy-1-(6,7-dimethyl-1-phenyl-1H-pyrazolo[3,4-b]quinoxalin-3-yl)propyl-4-O-α-D-glucopyranosyl-α-D-glucopyranoside, nonakis(H-sulfate), nonasalt with trimethylamine]
[1]
  035 In Vitro Activity (activity in wells): +1 wells
Activated human C1
  026 In Vitro Activity (activity in wells): +5 wells

## O=S(=O)(O)OC[C@H]1O[C@H](O[C@@H](c2nn(-c3ccccc3)c3nc4ccccc4nc23)[C@@H](COS(=O)(=O)O)OS(=O)(=O)O)[C@H](OS(=O)(=O)O)[C@@H](OS(=O)(=O)O)[C@@H]1O[C@H]1O[C@H](COS(=O)(=O)O)[C@@H](OS(=O)(=O)O)[C@H](OS(=O)(=O)O)[C@H]1OS(=O)(=O)O [D-Erythro-2,3-dihydroxy-1-(1-phenyl-1H-pyrazolo[3,4-b]quinoxalin-3-yl)propyl-4-O-α-D-glucopyranosyl-α-D-glucopyranoside, nonakis(H-sulfate), nonasodium salt]
[2]; 0.5 h, serum 30 minutes after injection, read-out: In Vivo Activity (Guinea Pig) (Intraperitoneal) % Inhibition, 30 minutes
  inhibition at 200 mg/kg: -58%
[2]; 1 h, serum 60 minutes after injection, read-out: In Vivo Activity (Guinea Pig) (Intraperitoneal) % Inhibition, 60 minutes
  inhibition at 200 mg/kg: -56%
[2]; 2 h, serum 120 minutes after injection, read-out: In Vivo Activity (Guinea Pig) (Intraperitoneal) % Inhibition, 120 minutes
  inhibition at 200 mg/kg: -76%

## O=S(=O)(O)OC[C@H]1O[C@H](O[C@@H](c2nn(-c3ccccc3)c3nc4ccccc4nc23)[C@@H](COS(=O)(=O)O)OS(=O)(=O)O)[C@H](OS(=O)(=O)O)[C@@H](OS(=O)(=O)O)[C@@H]1O[C@H]1O[C@H](COS(=O)(=O)O)[C@@H](OS(=O)(=O)O)[C@H](OS(=O)(=O)O)[C@H]1OS(=O)(=O)O [D-Erythro-2,3-dihydroxy-1-(1-phenyl-1H-pyrazolo[3,4-b]quinox] [D-Erythro-2,3-dihydroxy-1-(1-phenyl-1H-pyrazolo[3,4-b]quinoxalin-3-yl)propyl-4-O-α-D-glucopyranosyl-α-D-glucopyranoside, nonakis(H-sulfate), nonasalt with trimethylamine]
[1]
  035 In Vitro Activity (activity in wells): N
